# Test results reported in patent publication US20250195521A1 (Revolution Medicines, Inc., priority 2020, published 2025).
# Read-outs that look alike come from different tables or passages of the source.
# Columns and labels:
# [1] = system: AsPC-1 (K-Ras G12D); assay: CellTiter-Glo cell viability assay, AsPC-1; format: cell-based, human; details: Homo sapiens, ASPC1, 120 h, read-out: AsPC-1 Cell Viability IC50
# Description: Note—The following protocol describes a procedure for monitoring cell viability of K-Ras mutant cancer cell lines in response to a compound of the invention. Other RAS isoforms may be employed, though the number of cells to be seeded will vary based on cell line used.
# Test compounds (132.5 nL) were directly dispensed into the assay plates containing cells. […] On day 5, assay plates and their contents were equilibrated to room temperature for approximately 30 minutes. […] Luminescence was measured using the PerkinElmer Enspire. Data were normalized by the following: (Sample signal/Avg. DMSO)*100. The data were fit using a four-parameter logistic fit.
# [2] = system: Capan-1 cells (K-Ras G12V); assay: CellTiter-Glo cell viability, Capan-1; format: cell-based, human; details: Homo sapiens, CAPAN-1, 120 h, K-Ras G12V, 5-day treatment; read-out: Capan-1 Cell Viability IC50
# In short: (§1)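 Endpoint: CellTiter-Glo luminescence on day 5, following ~30 min at room temperature. Data as (sample/mean DMSO)×100, four-parameter logistic fit.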
# [3] = system: NCI-H358 (K-Ras G12C); assay: CellTiter-Glo cell viability assay, NCI-H358; format: cell-based, human; details: Homo sapiens, NCI-H358, 120 h, 5-day treatment; read-out: H358 Cell Viability assay data (K-Ras G12C, IC50)
# In short: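 After direct compound addition, plates were incubated to day 5 and equilibrated at room temperature for about 30 minutes before CellTiter-Glo reading. Values derive from luminescence relative to the DMSO mean, fitted with a four-parameter logistic model.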
# [4] = target: KRAS G12S (Homo sapiens (Human), UniProt P01116+P62937, G12S); assay: Ras-Raf disruption/FRET/MOA assay (BRAF RBD, Cyclophilin A); format: biochemical; details: read-out: KRAS G12S FRET IC50
# In short: (§2)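 Measured: compound-facilitated Cyclophilin A:Ras complex blocking RAF RBD binding. Conditions: 12.5 nM Ras-GMPPNP, 50 nM BRAF RBD, 25 μM CypA, 3 h plus 1.5 h detection. Output: IC50 from TR-FRET ratio.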
# [5] = target: KRAS G12D (Homo sapiens (Human), UniProt P01116+P62937, G12D); assay: as above; format: biochemical; details: read-out: KRAS G12D FRET IC50
# In short: as §2
# [6] = target: KRAS Q61H (Homo sapiens (Human), UniProt P01116+P62937, Q61H); assay: as above; format: biochemical
# In short: as §2
# [7] = target: KRAS WT (Homo sapiens (Human), UniProt P01116+P62937); assay: as above; format: biochemical; details: read-out: KRAS WT FRET data IC50
# In short: as §2
# [8] = target: NRAS WT (Homo sapiens (Human), UniProt P01111+P62937); assay: as above; format: biochemical
# In short: (§3)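 Ras-GMPPNP (12.5 nM), BRAF RBD (50 nM) and 25 μM Cyclophilin A were incubated with compound for 3 h at 25° C, then detected 1.5 h with anti-His Eu and anti-GST APC; IC50 values follow from the reduced TR-FRET ratio.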
# [9] = target: KRAS G12V (Homo sapiens (Human), UniProt P01116+P62937, G12V); assay: as above; format: biochemical; details: read-out: KRAS G12V FRET IC50
# In short: as §2
# [10] = target: KRAS G12C (Homo sapiens (Human), UniProt P01116+P62937, G12C); assay: as above; format: biochemical; details: read-out: KRAS G12C FRET IC50
# In short: as §2
# [11] = target: KRAS G13C (Homo sapiens (Human), UniProt P01116+P62937, G13C); assay: as above; format: biochemical; details: read-out: KRAS G13C FRET IC50
# In short: as §2
# [12] = target: NRAS Q61R (Homo sapiens (Human), UniProt P01111+P62937, Q61R); assay: as above; format: biochemical
# In short: as §3
# [13] = target: NRAS Q61K (Homo sapiens (Human), UniProt P01111+P62937, Q61K); assay: as above; format: biochemical
# In short: as §3
# [14] = target: NRAS G12C (Homo sapiens (Human), UniProt P01111+P62937, G12C); assay: as above; format: biochemical; details: read-out: NRAS G12C FRET data IC50
# In short: as §3
# [15] = target: KRAS G13D (Homo sapiens (Human), UniProt P01116+P62937, G13D); assay: as above; format: biochemical; details: read-out: KRAS G13D FRET data IC50
# In short: as §2
# [16] = target: K-Ras G12C(GMP-PNP) binding to BRAF RBD (Homo sapiens (Human), UniProt P01116+P62937, G12C); assay: Disruption of BRAF RBD interaction with K-Ras (FRET / MOA assay), K-Ras G12C; format: biochemical; details: read-out: KRAS G12C FRET IC50
# In short: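 Incubation of compound (up to 30 μM final, 3-fold steps) with GMP-PNP-type loaded Ras isoform, cyclophilin A and BRAF RBD ran 3 h at 25° C, followed by 1.5 h with detection antibodies. Disruption appears as a reduced TR-FRET ratio compared with DMSO controls, expressed as IC50.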
# [17] = system: NCI-H358 cells (K-Ras G12C); assay: CellTiter-Glo cell viability, NCI-H358; format: cell-based, human; details: Homo sapiens, NCI-H358, 120 h, K-Ras G12C, 5-day treatment; read-out: H358 Cell Viability IC50
# In short: as §1
# [18] = system: AsPC-1 (K-Ras G12D); assay: Potency assay: pERK; format: cell-based, human; details: Homo sapiens, ASPC1, read-out: pERK EC50
# Description: The purpose of this assay is to measure the ability of test compounds to inhibit K-Ras in cells. […] This procedure measures a decrease in cellular pERK in response to test compounds. The procedure described below in NCI-H358 cells is applicable to K-Ras G12C.
# NCI-H358 cells were grown and maintained using media and procedures recommended by the ATCC. On the day prior to compound addition, cells were plated in 384-well cell culture plates (40 μl/well) and grown overnight in a 37° C., 5% CO2 incubator. Test compounds were prepared in 10, 3-fold dilutions in DMSO, with a high concentration of 10 mM. On the day of assay, 40 nL of test compound was added to each well of cell culture plate using an Echo550 liquid handler (LabCyte®). Concentrations of test compound were tested in duplicate. After compound addition, cells were incubated 4 hours at 37° C., 5% CO2. Following incubation, culture medium was removed and cells were washed once with phosphate buffered saline.
# In some experiments, cellular pERK level was determined using the AlphaLISA SureFire Ultra p-ERK1/2 Assay Kit (PerkinElmer). Cells were lysed in 25 μL lysis buffer, with shaking at 600 RPM at room temperature. Lysate (10 μL) was transferred to a 384-well Opti-plate (PerkinElmer) and 5 μL acceptor mix was added. After a 2-hour incubation in the dark, 5 μL donor mix was added, plate was sealed, and incubated 2 hours at room temperature. Signal was read on an Envision plate reader (PerkinElmer) using standard AlphaLISA settings. Analysis of raw data was carried out in Excel (Microsoft) and Prism (GraphPad). Signal was plotted vs. the decadal logarithm of compound concentration, and IC50 was determined by fitting a 4-parameter sigmoidal concentration response model.
# In other experiments, cellular pERK was determined by In-Cell Western. Following compound treatment, cells were washed twice with 200 μL tris buffered saline (TBS) and fixed for 15 minutes with 150 μL 4% paraformaldehyde in TBS. Fixed cells were washed 4 times for 5 minutes with TBS containing 0.1% Triton X-100 (TBST) and then blocked with 100 μL Odyssey blocking buffer (LI-COR) for 60 minutes at room temperature. Primary antibody (PERK, CST-4370, Cell Signaling Technology) was diluted 1:200 in blocking buffer, and 50 μL was added to each well and incubated overnight at 4° C. Cells were washed 4 times for 5 minutes with TBST. Secondary antibody (IR-800CW rabbit, LI-COR, diluted 1:800) and DNA stain DRAQ5 (LI-COR, diluted 1:2000) were added and incubated 1-2 hours at room temperature. Cells were washed 4 times for 5 minutes with TBST. Plates were scanned on a Li—COR Odyssey CLx Imager. Analysis of raw data was carried out in Excel (Microsoft) and Prism (GraphPad). Signal was plotted vs. the decadal logarithm of compound concentration, and IC50 was determined by fitting a 4-parameter sigmoidal concentration response model.
# KRAS Q61H, sequence (P01116 other isoform, or with tags, fused parts or gaps Q61H): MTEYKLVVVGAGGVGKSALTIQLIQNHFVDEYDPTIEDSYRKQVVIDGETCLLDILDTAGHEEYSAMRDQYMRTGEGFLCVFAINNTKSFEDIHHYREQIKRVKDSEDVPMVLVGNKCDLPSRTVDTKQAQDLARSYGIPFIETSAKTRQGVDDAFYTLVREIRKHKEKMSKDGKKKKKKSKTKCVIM
# KRAS Q61H, sequence (P62937 whole entry): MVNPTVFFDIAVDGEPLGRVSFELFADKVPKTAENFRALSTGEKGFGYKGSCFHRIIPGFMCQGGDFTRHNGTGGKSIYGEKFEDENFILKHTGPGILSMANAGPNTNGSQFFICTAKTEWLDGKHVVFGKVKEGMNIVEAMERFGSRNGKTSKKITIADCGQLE
# KRAS G13D, sequence (P01116 other isoform, or with tags, fused parts or gaps G13D): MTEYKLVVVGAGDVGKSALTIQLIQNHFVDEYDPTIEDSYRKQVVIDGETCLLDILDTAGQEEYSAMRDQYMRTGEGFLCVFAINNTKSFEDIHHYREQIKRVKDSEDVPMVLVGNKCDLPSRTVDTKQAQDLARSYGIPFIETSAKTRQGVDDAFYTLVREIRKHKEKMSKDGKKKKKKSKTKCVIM
# KRAS G13D, sequence (P62937 whole entry): as the sequence (P62937 whole entry) above
# KRAS G12C, sequence (P01116-2 other isoform, or with tags, fused parts or gaps G12C): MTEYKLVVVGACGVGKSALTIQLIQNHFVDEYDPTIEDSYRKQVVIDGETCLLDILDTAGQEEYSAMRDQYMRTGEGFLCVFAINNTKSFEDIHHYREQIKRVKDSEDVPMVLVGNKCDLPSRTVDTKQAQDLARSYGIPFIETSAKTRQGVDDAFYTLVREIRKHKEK
# KRAS G12C, sequence (P62937 whole entry): as the sequence (P62937 whole entry) above
# NRAS G12C, sequence (P01111 whole entry G12C): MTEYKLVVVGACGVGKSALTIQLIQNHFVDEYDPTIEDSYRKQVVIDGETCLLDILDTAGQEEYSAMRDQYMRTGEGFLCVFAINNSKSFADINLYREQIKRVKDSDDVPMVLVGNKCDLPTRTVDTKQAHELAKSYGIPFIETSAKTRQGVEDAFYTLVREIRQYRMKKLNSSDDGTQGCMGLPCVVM
# NRAS G12C, sequence (P62937 whole entry): as the sequence (P62937 whole entry) above
# KRAS G13C, sequence (P01116 other isoform, or with tags, fused parts or gaps G13C): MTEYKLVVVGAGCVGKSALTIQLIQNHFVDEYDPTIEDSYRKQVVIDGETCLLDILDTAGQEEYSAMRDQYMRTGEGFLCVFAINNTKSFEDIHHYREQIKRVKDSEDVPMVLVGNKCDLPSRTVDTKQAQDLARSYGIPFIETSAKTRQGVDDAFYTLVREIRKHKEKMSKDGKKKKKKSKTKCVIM
# KRAS G13C, sequence (P62937 whole entry): as the sequence (P62937 whole entry) above
# KRAS G12S, sequence (P01116 other isoform, or with tags, fused parts or gaps G12S): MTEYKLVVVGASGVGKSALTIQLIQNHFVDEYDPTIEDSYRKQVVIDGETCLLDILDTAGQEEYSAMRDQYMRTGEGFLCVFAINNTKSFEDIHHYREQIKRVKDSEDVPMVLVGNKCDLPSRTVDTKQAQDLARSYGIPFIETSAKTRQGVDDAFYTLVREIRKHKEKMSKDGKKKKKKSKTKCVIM
# KRAS G12S, sequence (P62937 whole entry): as the sequence (P62937 whole entry) above
# NRAS Q61R, sequence (P01111 whole entry Q61R): as the sequence (P01111 whole entry G12C) above, with C12G, Q61R counted along it
# NRAS Q61R, sequence (P62937 whole entry): as the sequence (P62937 whole entry) above
# NRAS Q61K, sequence (P01111 whole entry Q61K): as the sequence (P01111 whole entry G12C) above, with C12G, Q61K counted along it
# NRAS Q61K, sequence (P62937 whole entry): as the sequence (P62937 whole entry) above
# K-Ras G12C(GMP-PNP) binding to BRAF RBD, sequence (P01116 other isoform, or with tags, fused parts or gaps G12C): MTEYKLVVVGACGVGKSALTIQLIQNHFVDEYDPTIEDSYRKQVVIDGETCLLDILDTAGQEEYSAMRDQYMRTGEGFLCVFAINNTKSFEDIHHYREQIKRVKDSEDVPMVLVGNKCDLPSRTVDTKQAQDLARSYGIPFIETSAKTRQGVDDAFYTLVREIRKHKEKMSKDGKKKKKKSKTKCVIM
# K-Ras G12C(GMP-PNP) binding to BRAF RBD, sequence (P62937 whole entry, canonical isoform): as the sequence (P62937 whole entry) above
# KRAS WT, sequence (P01116 other isoform, or with tags, fused parts or gaps): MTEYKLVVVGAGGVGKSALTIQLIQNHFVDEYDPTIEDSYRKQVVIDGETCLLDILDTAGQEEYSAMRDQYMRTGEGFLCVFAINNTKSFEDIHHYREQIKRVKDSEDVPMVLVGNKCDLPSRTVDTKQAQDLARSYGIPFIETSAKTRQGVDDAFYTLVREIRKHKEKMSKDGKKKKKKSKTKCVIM
# KRAS WT, sequence (P62937 whole entry): as the sequence (P62937 whole entry) above
# KRAS G12D, sequence (P01116 other isoform, or with tags, fused parts or gaps G12D): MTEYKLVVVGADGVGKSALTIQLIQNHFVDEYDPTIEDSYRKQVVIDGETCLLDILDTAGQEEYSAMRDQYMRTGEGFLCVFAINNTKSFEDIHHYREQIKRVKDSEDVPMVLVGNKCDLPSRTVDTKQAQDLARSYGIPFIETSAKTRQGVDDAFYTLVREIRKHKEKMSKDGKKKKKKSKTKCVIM
# KRAS G12D, sequence (P62937 whole entry): as the sequence (P62937 whole entry) above
# KRAS G12V, sequence (P01116 other isoform, or with tags, fused parts or gaps G12V): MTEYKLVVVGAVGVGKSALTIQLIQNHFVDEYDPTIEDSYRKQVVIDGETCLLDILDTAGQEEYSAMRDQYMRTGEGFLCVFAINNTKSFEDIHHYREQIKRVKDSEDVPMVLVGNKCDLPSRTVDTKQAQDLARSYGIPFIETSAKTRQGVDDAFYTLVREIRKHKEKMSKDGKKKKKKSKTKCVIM
# KRAS G12V, sequence (P62937 whole entry): as the sequence (P62937 whole entry) above
# NRAS WT, sequence (P01111 whole entry): as the sequence (P01111 whole entry G12C) above, with C12G counted along it
# NRAS WT, sequence (P62937 whole entry): as the sequence (P62937 whole entry) above
Structure (SMILES),EC50 [18] [µM],IC50 [1] [µM],other results
"CCn1c(-c2cccnc2[C@H](C)OC)c2c3cc(ccc31)-c1cc(O)cc(c1)C[C@H](NC(=O)[C@H](C(C)C)N(C)C(=O)N1CCN(C(=O)[C@@H]3CN3)C(=O)C1)C(=O)N1CCC[C@H](N1)C(=O)OCC(C)(C)C2 (atropisomer, axis not shown) [Example 194]",–,–,"IC50 ([1]; K-Ras G12D, 5-day treatment): > 10 µM"
CCn1c(-c2cccnc2[C@H](C)OC)c2c3cc(ccc31)-c1csc(n1)C[C@H](NC(=O)[C@H](C(C)C)N(C)C(=O)N(C)[C@H]1CCCN(C)C1)C(=O)N1CCC[C@H](N1)C(=O)OCC(C)(C)C2 [Compound A588],–,–,IC50 [2]: 0.1 to 1 µM; IC50 [3]: 0.01 to 0.1 µM; IC50 [4]: 0.1 to 1 µM; IC50 [5]: 0.1 to 1 µM; IC50 [6]: 0.1 to 1 µM; IC50 [7]: 0.1 to 1 µM; IC50 [8]: 0.1 to 1 µM; IC50 [9]: 1 to 10 µM; IC50 [10]: 0.1 to 1 µM; IC50 [11]: 0.1 to 1 µM; IC50 [12]: 1 to 10 µM; IC50 [13]: 0.1 to 1 µM; IC50 [14]: 0.1 to 1 µM; IC50 [15]: 0.1 to 1 µM; IC50 [16]: 0.1 to 1 µM; IC50 [17]: 0.01 to 0.1 µM
CCn1c(-c2cccnc2[C@H](C)OC)c2c3cc(ccc31)-c1cc(O)cc(c1)C[C@H](NC(=O)[C@H](C(C)C)N(C)C(=O)[C@@H](C)N(C)C(=O)[C@H]1CN1)C(=O)N1CCC[C@H](N1)C(=O)OCC(C)(C)C2 [Example 114],< 5,1 to 10,–
CCn1c(-c2cccnc2[C@H](C)OC)c2c3cc(ccc31)-c1cc(O)cc(c1)C[C@H](NC(=O)[C@H](C(C)C)N(C)C(=O)CN(C)C(=O)[C@H]1N[C@H]1C1CC1)C(=O)N1CCC[C@H](N1)C(=O)OCC(C)(C)C2 [Example 134],< 5,1 to 10,–
CCn1c(-c2cccnc2[C@H](C)OC)c2c3cc(ccc31)-c1cc(O)cc(c1)C[C@H](NC(=O)[C@H](C(C)C)N(C)C(=O)CNC(=O)[C@H]1CN1)C(=O)N1CCC[C@H](N1)C(=O)OCC(C)(C)C2 [Example 140],< 5,1 to 10,–
CCn1c(-c2cccnc2[C@H](C)OC)c2c3cc(ccc31)-c1cc(O)cc(c1)C[C@H](NC(=O)[C@H](C(C)C)N(C)C(=O)N1CCN(C(=O)[C@H]3CN3)C(=O)C1)C(=O)N1CCC[C@H](N1)C(=O)OCC(C)(C)C2 [Example 143],–,–,"IC50 ([1]; K-Ras G12D, 5-day treatment): > 10 µM"
CCn1c(-c2cccnc2[C@H](C)OC)c2c3cc(ccc31)-c1cc(O)cc(c1)C[C@H](NC(=O)[C@H](C(C)C)N(C)C(=O)CNC(=O)[C@@H]1CN1)C(=O)N1CCC[C@H](N1)C(=O)OCC(C)(C)C2 [Example 147],< 5,1 to 10,–
CCn1c(-c2cccnc2[C@H](C)OC)c2c3cc(ccc31)-c1cc(O)cc(c1)C[C@H](NC(=O)[C@H](C(C)C)N(C)C(=O)[C@H]1CCCN1C(=O)[C@@H]1CN1)C(=O)N1CCC[C@H](N1)C(=O)OCC(C)(C)C2 [Example 151],< 5,1 to 10,–
CCn1c(-c2cccnc2[C@H](C)OC)c2c3cc(ccc31)-c1cc(O)cc(c1)C[C@H](NC(=O)[C@H](C(C)C)N(C)C(=O)[C@H]1CCCN1C(=O)[C@H]1CN1)C(=O)N1CCC[C@H](N1)C(=O)OCC(C)(C)C2 [Example 152],< 5,1 to 10,–
CCn1c(-c2cccnc2[C@H](C)OC)c2c3cc(ccc31)-c1cc(O)cc(c1)C[C@H](NC(=O)[C@H](C(C)C)N(C)C(=O)[C@H]1CC[C@@H](C)N1C(=O)[C@@H]1CN1)C(=O)N1CCC[C@H](N1)C(=O)OCC(C)(C)C2 [Example 153],< 5,1 to 10,–
CCn1c(-c2cccnc2[C@H](C)OC)c2c3cc(ccc31)-c1cc(O)cc(c1)C[C@H](NC(=O)[C@H](C(C)C)N(C)C(=O)[C@H]1CC[C@@H](C)N1C(=O)[C@H]1CN1)C(=O)N1CCC[C@H](N1)C(=O)OCC(C)(C)C2 [Example 154],< 5,1 to 10,–
CCn1c(-c2cccnc2[C@H](C)OC)c2c3cc(ccc31)-c1cc(O)cc(c1)C[C@H](NC(=O)[C@H](C(C)C)N(C)C(=O)CN(C)C(=O)[C@H]1CN1CCO)C(=O)N1CCC[C@H](N1)C(=O)OCC(C)(C)C2 (some centres unmarked) [Example 161],< 5,1 to 10,–
CCn1c(-c2cccnc2[C@H](C)OC)c2c3cc(ccc31)-c1cc(O)cc(c1)C[C@H](NC(=O)[C@H](C(C)C)N(C)C(=O)CN(C)C(=O)[C@@H]1CN1CCO)C(=O)N1CCC[C@H](N1)C(=O)OCC(C)(C)C2 (some centres unmarked) [Example 162],< 5,1 to 10,–
